Measured values reported in ChEMBL document CHEMBL1201862, “PubChem BioAssay data set” (2004).
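Compound exposure: 48 hours, 5 concentrations, 96-well plates. Here, GI50 denotes the concentration required for 50% inhibition of growth.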 Activity calls are given as the source filed them. Cut-off read from the data, not from the text of the source: active = GI50 up to about 1.1 µM and inactive = higher.

Experiments:
Experiment in all cases: NCI anticancer screen, dose series, 48 h
[1] = tested on: COLO 205
[2] = tested on: EKVX
[3] = tested on: HCT-116
[4] = tested on: HL-60
[5] = tested on: KM12
[6] = tested on: MOLT-4
[7] = tested on: NCI-H460
[8] = tested on: NCI/ADR-RES
[9] = tested on: OVCAR-8
[10] = tested on: SF-268
[11] = tested on: SF-295
[12] = tested on: SK-MEL-28
[13] = tested on: SN12C
[14] = tested on: UACC-257
[15] = tested on: 786-0
[16] = tested on: M14
[17] = tested on: SR
[18] = tested on: DU-145
[19] = tested on: MDA-MB-435
[20] = tested on: PC-3

| SMILES | GI50 [1] | GI50 [2] | GI50 [3] | GI50 [4] | GI50 [5] | GI50 [6] | GI50 [7] | GI50 [8] | GI50 [9] | GI50 [10] | GI50 [11] | GI50 [12] | GI50 [13] | GI50 [14] | GI50 [15] | GI50 [16] | GI50 [17] | GI50 [18] | GI50 [19] | GI50 [20] |
| --- | --- | --- | --- | --- | --- | --- | --- | --- | --- | --- | --- | --- | --- | --- | --- | --- | --- | --- | --- | --- |
| c1ccc2cc3c(cc2c1)OP1(Oc2cccc4cccnc24)(O3)Oc2cc3ccccc3cc2O1 | 6.32 µM (inactive) | 3.37 µM (inactive) | 3.24 µM (inactive) | 1.63 µM (inactive) | 5.31 µM (inactive) | 1.57 µM (inactive) | 2.52 µM (inactive) | 1.28 µM (inactive) | 3.56 µM (inactive) | 4.81 µM (inactive) | 4.67 µM (inactive) | 15.8 µM (inactive) | 14.8 µM (inactive) | 2.69 µM (inactive) | – | – | – | – | – | – |
| O=C(Cc1ccccc1)NN1C(=O)C(Cl)C1c1cc(Br)cc(Br)c1O (stereo not given) | 21.3 µM (inactive) | 7.76 µM (inactive) | 3.21 µM (inactive) | 2.13 µM (inactive) | 40.1 µM (inactive) | 2.62 µM (inactive) | 3.87 µM (inactive) | – | 8.87 µM (inactive) | 3.63 µM (inactive) | 12.3 µM (inactive) | 10.3 µM (inactive) | 21.3 µM (inactive) | 11.5 µM (inactive) | 10.1 µM (inactive) | 14.8 µM (inactive) | 0.794 µM (active) | – | – | – |
| CCOC(=O)c1cc(-c2ccc(OC)cc2)c([N+](=O)[O-])[nH]1 | > 10 µM (inactive) | > 10 µM (inactive) | > 10 µM (inactive) | > 10 µM (inactive) | > 10 µM (inactive) | > 10 µM (inactive) | > 10 µM (inactive) | – | > 10 µM (inactive) | > 10 µM (inactive) | > 10 µM (inactive) | > 10 µM (inactive) | > 10 µM (inactive) | > 10 µM (inactive) | > 10 µM (inactive) | > 10 µM (inactive) | > 10 µM (inactive) | > 10 µM (inactive) | > 5.01 µM (inactive) | > 10 µM (inactive) |
| NC(=O)N1N=C2c3ccccc3OC[C@H]2[C@@H]1c1ccccc1 | 18.2 µM (inactive) | 35.2 µM (inactive) | 5.6 µM (inactive) | 22.6 µM (inactive) | 9.31 µM (inactive) | 29.5 µM (inactive) | 13.2 µM (inactive) | – | 5.07 µM (inactive) | 9.86 µM (inactive) | 4.21 µM (inactive) | 25.5 µM (inactive) | 23.9 µM (inactive) | 10.9 µM (inactive) | 5.02 µM (inactive) | 2.07 µM (inactive) | 6.31 µM (inactive) | – | – | – |
| O=[N+]([O-])c1ccc(-n2nnc(C3=NCCCN3)c2-c2ccc(Cl)cc2)cc1 | 30.5 µM (inactive) | > 100 µM (inactive) | 89.1 µM (inactive) | 46.3 µM (inactive) | > 100 µM (inactive) | 79.3 µM (inactive) | > 100 µM (inactive) | – | > 100 µM (inactive) | > 100 µM (inactive) | > 100 µM (inactive) | 32.7 µM (inactive) | > 100 µM (inactive) | 67.1 µM (inactive) | > 100 µM (inactive) | 54 µM (inactive) | 29 µM (inactive) | – | – | – |
| O=Cc1ccc2c(c1-c1c(C=O)ccc3c1OCO3)OCO2 | > 100 µM (inactive) | > 100 µM (inactive) | > 100 µM (inactive) | > 100 µM (inactive) | > 100 µM (inactive) | > 100 µM (inactive) | > 100 µM (inactive) | – | > 100 µM (inactive) | > 100 µM (inactive) | > 100 µM (inactive) | > 100 µM (inactive) | > 100 µM (inactive) | > 100 µM (inactive) | > 100 µM (inactive) | > 100 µM (inactive) | > 100 µM (inactive) | – | – | – |
| Cc1ccc(S(=O)(=O)NC(=O)NCC(N)=O)cc1 | > 100 µM (inactive) | – | > 100 µM (inactive) | > 100 µM (inactive) | > 100 µM (inactive) | > 100 µM (inactive) | > 100 µM (inactive) | > 100 µM (inactive) | > 100 µM (inactive) | > 100 µM (inactive) | > 100 µM (inactive) | > 100 µM (inactive) | > 100 µM (inactive) | > 100 µM (inactive) | > 100 µM (inactive) | > 100 µM (inactive) | – | > 100 µM (inactive) | – | > 100 µM (inactive) |
| CN(CCCNC(=O)c1cn(C)c2c1ccc1ccccc12)CCCNC(=O)c1cn(C)c2c1ccc1ccccc12 | 1.75 µM (inactive) | 1.7 µM (inactive) | 1.49 µM (inactive) | – | 1.61 µM (inactive) | – | 1.51 µM (inactive) | 1.77 µM (inactive) | – | 1.49 µM (inactive) | 4.6 µM (inactive) | 1.69 µM (inactive) | 1.41 µM (inactive) | 1.58 µM (inactive) | 1.87 µM (inactive) | 1.58 µM (inactive) | – | 1.55 µM (inactive) | 2.06 µM (inactive) | 1.51 µM (inactive) |
